The text below walks through data of patent publication US20200383327A1, “METHOD OF IMPROVING PLANT PERFORMANCE” (The State of Israel, Ministry of Agriculture & Rural …, priority 2018, published 2020).

What all share (assay type): in vivo
Test [1] can be described thus: Strawberry fruit decay after pre-harvest treatment. The settings on record: 1-4 mM solution 3 weeks pre-harvest, FIG. 18. The method, then: FIG. 18 is a graph showing the effect of Phe solution on fruit pre-harvest decay. […] Decay was monitored and documented over a period of 12 days.
Strawberry plants were treated with 1-4 mM solution 3 weeks pre-harvest.

Another test concerns Bemisia tabaci. Put plainly: Silver leaf whitefly incidence on tomato leaves. The settings on record: 4 mM Phe solution, drench or spray, each treatment; 30 days after treatment; FIG. 10. Here is the method:
FIG. 10 is a bar graph showing the effect of 4 mM Phe solution on the severity of silver leaf white fly (SLWF) on tomato plants. The Phe solution was applied by spraying and by drench on the tomato plants at 3 days before and 4 hours before incubation in the greenhouse. Incidence of SLWF was evaluated on a representative leaf 30 days after treatment.
The insect silver leaf whitefly Bemisia tabaci Gennadius (commonly also sweet potato whitefly) occurred naturally on the treated tomato plants. The plants were kept in a greenhouse with 18-28° C. Incidence of insect individuals' number on the 10th leaf of the tomato plants was counted.

The subject of a further test is Oidium neolycopersici. Put plainly: Oidium powdery mildew on tomato plants. The settings on record: 24 days after treatment. The method, then:
The Phe (P) solution was applied by spraying and by drench on the tomato plants at 3 days before and 4 hours before incubation in the greenhouse. Incidence of Oidium powdery mildew was evaluated 24 days after treatment. […] The Phe and shatakh 90 solutions were applied by spraying on the tomato plants at 3 days before and 4 hours before incubation in the greenhouse. Incidence of Oidium powdery mildew was evaluated 24 days after treatment.
Conidia of Oidium neolycopersici were collected from leaves of a diseased plant, suspended in water and sprayed on the tomato plants. The plants were kept in a greenhouse with 18-28° C. Disease severity of Oidium powdery mildew was evaluated on a scale of 0-100% where 100=whole canopy covered by disease symptoms.

The next test relates to Botrytis cinerea. Put plainly: Tomato gray mold severity on leaves of tomato plants. Here is the method:
Plants of tomato (Solanum esculentum) and cucumber (Cucumis sativus) were grown from seeds in a nursery and transplanted into 1-liter pots at 40 to 50 days after seeding in an unheated greenhouse. Plants were fertilized proportionally with drippers 2-3 times per day with 5:3:8 NPK fertilizer (irrigation water was planned to have total N, P and K concentrations of 120, 30 and 150 mg/L, respectively; EC 2.2 dS/m), allowing for 25-50% drainage. Plants were maintained at 20 to 30° C. with natural light, and relative humidity of 50-90% in a pest- and disease-free greenhouse during the growth period and then transferred to an area where diseases were allowed to develop following pathogen infection on intact leaves as described below.
Treatments in experiments were replicated 5-10 times. Replicates of each treatment were arranged randomly. Disease severity data in percentages were arcsin-transformed before further analysis. Disease severity data were analyzed using ANOVA and Fisher's protected LSD test. Standard errors (SE) of the means were calculated and disease levels were statistically separated (P≤0.05) following a one-way analysis of variance. A control experiment presents the severity of the disease with application of only water without the Phe.
Gray mold inducing pathogen Botrytis cinerea [Pers.:Fr. [Teleomorph: Botryotinia fuckeliana (de Bary) Whetzel] (isolate BcI16; [Swartzberg D. et al., Eur. J. Plant Pathol., 2008, 120:289-297])] was cultured on potato dextrose agar (PDA, Difco, Detroit, Mich.) in 90 mm diam. petri dishes containing 15 ml PDA each and incubated at 20° C. The inoculum was maintained on PDA and transferred every two weeks. Gray mold conidia were harvested from 10 to 14-day-old cultures by agitating 1 cm^2 of agar bearing mycelium and conidia in a glass tube with tap water. The suspension was then filtered through cheesecloth. The concentration of conidia was determined using a hemocytometer and a light microscope, and adjusted to 5×10^5 conidia/ml. Since B. cinerea conidia need carbon and phosphate for germination and penetration, 0.1% glucose was added to the final conidial suspension together with 0.1% KH2PO4. […] Plant attached tomato leaves were examined. Whole plants were kept in a humidity chamber at 20±1° C., 97±3% RH, and 1,020 lux light intensity. Plants were infected by spraying the whole plant with 2 ml of a 5×10^5 conidia/ml suspension or were infected after wounding with a needle and dropping 10 μL drops of conidia suspension prepared as mentioned above. Disease severity was evaluated on each plant using a pictorial key; 0=no infection (all leaves are symptomless) and 100=all leaves are fully covered by gray mold symptoms.

The test system of test [2] is Anthracnose. As to the kind of experiment: Anthracnose incidence on harvested mango after orchard flowering spray. The settings on record: application during orchard flowering; stored at ambient temperature for 12 days; FIG. 23B. The text has this: (§1) FIGS. 23A-C: Effect of flowering application on disease incidence. Avocado and Mango cv. ‘Kent’ orchards were sprayed with fungicide (Pyrimethanil+Fludioxonil) or with phenylalanine during flowering. (FIG. 23A). Powdery Mildew incidence (percentage) per inflorescence in mango orchard. (FIG. 23B). Anthracnose incidence (percentage) on harvested mango stored at ambient temperature for 12 days. (FIG. 23CB). Anthracnose incidence (percentage) on harvested avocado stored at ambient temperature for 14 days.
(§2) Flowering is one of the more susceptible organs of the tree. Pathogenic fungi can penetrate during flowering and either infect the flower (e.g., powdery mildew) or endophytically colonize the stem and the fruit without causing any visible symptoms. Those fungi (e.g. Colletotrichum and Lasiodiplodia) become active during abiotic stress or during fruit ripening and cause fruit stem-end rot and anthracnose.

Another test has as its system Tetranychus urticae. As to the kind of experiment: Red spider mite damage on tomato plants, natural infestation in greenhouse. The conditions noted are these: 4 mM Phe solution, drench or spray, each treatment; AUDPC during 30 days; FIG. 9. The method, then: FIG. 9 is a bar graph showing the effect of 4 mM Phe solution on the severity of Tetranychus urticae red spider mite on leaves of tomato plants. The Phe solution was applied by spraying and by drench on the tomato plants at 3 days before and 4 hours before incubation in the greenhouse. Symptoms severity was evaluated on a scale of 0-100% severity of symptoms coverage during 30 days after treatment and it is expressed as the area under disease progress curve (AUDPC).
The red spider mite Tetranychus urticae Koch, (also two-spotted spider mite) occurred naturally on the treated tomato plants. The plants were kept in a greenhouse with 18-28° C. Typical scratching symptoms severity were evaluated on each plant; 0=no infection (all leaves are symptomless) and 100=leaves were fully covered by symptoms.

Test [3] relates to Anthracnose. As to the kind of experiment: Anthracnose incidence on harvested avocado after orchard flowering spray. The conditions noted are these: application during orchard flowering; stored at ambient temperature for 14 days; FIG. 23.
Text: as §1, §2

With `N[C@@H](Cc1ccccc1)C(=O)O` [Phe, Phenylalanine], the “Amount of rotten fruits (decay incidence)” value in test [1] is given as “substantially reduced amount of rotten fruits”. Besides, the “Incidence of the Bemisia tabaci silver leaf whitefly on tomato leaves” value in the test on Bemisia tabaci is listed as “significantly suppressed”. The “Severity of Oidium powdery mildew on tomato leaves” value was “significantly suppressed” with Oidium neolycopersici (4 mM Phe solution, drench or spray, each treatment, FIG. 11A) and “significantly suppressed” with Oidium neolycopersici (spray, 4 mM Phe, 0.1% Shatah 90, or combination, FIG. 11B). Further, the “Disease control effect on severity of tomato gray mold” value is recorded as “significantly better disease control effect than 2 mM” with Botrytis cinerea (4 mM vs 2 mM Phe, drench to the root zone, FIG. 14); “significantly better disease control effect than 2 mM” in the test on Botrytis cinerea (4 mM vs 2 mM Phe, sprayed or drenched, wound infection, 1-4 mM series, FIG. 16); “significantly better disease control effect than 2 mM” in the test with Botrytis cinerea (4 mM vs 2 mM Phe, sprayed or drenched, wound infection, 2-4 mM series, FIG. 17); “significantly better disease control effect than 2 mM” with Botrytis cinerea (4 and 8 mM vs 2 mM Phe, sprayed, FIG. 15). Besides, the “Postharvest anthracnose in mango” value in the test with Anthracnose [2] is “reduced”. Moreover, the “Severity of damage of the Tetranychus urticae red spider mite on tomato leaves” value with Tetranychus urticae was “significantly suppressed”. Also, in the test with Anthracnose [3], the “Postharvest anthracnose in avocado” value is “reduced”.
